In PubChem BioAssay (NCI) one finds TGI and GI50 data, which are given here for 39 molecules.

Among the test systems are KM20L2 colon; LXFL 529 NSCLC; SNB-78 CNS; DU-145 prostate; HS 578T breast; MDA-MB-231 breast; MDA-N; PC-3 prostate; P388 leukemia; P388/ADR leukemia; SN12K1 renal.
Holding throughout (test): NCI tumour cell line growth inhibition, 48 h

Where “and” joins values, the source holds several entries; their conditions need not be identical. Equal entries are not always repeated.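 Method: 48-hour compound exposure of cells in 96-well plates, five concentrations, linear interpolation of endpoints. The concentration for 50% growth inhibition is given as GI50. TGI: total growth inhibition.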

On to `O=C(NO)C12C3C4C1C1C2C3C41C(=O)NO` (configuration not stated), for which the TGI with KM20L2 colon, in the test on LXFL 529 NSCLC and in the test with SNB-78 CNS was > 100 µM throughout.
With `C1=Cc2nc1c(-c1ccncc1)c1ccc([n-]1)c(-c1ccncc1)c1nc(c(-c3ccncc3)c3ccc([n-]3)c2-c2ccncc2)C=C1.[Zn+2]`, the TGI in the test with KM20L2 colon, with LXFL 529 NSCLC and in the test on SNB-78 CNS was > 100 µM each time.
For `COC(=O)C(Cl)=C1CC1`, the results for the TGI in the test with KM20L2 colon, in the test with LXFL 529 NSCLC and in the test on SNB-78 CNS were > 100 µM, 29.5 µM and > 100 µM, respectively.
Regarding `Nc1nc2nc[nH]c2c(=O)[nH]1`, the TGI in the test with KM20L2 colon, with LXFL 529 NSCLC and in the test with SNB-78 CNS was > 100 µM in each case.
As to `CCN(CC)C(=O)COc1ccc(Br)cc1Br`, the TGI with KM20L2 colon, in the test on LXFL 529 NSCLC and in the test on SNB-78 CNS was > 100 µM in each case.
For `Cc1cc(O)cc2c1O[C@@]1(C)CCC3[C@@]4(C)CC[C@H](O)C(C)(C)C4CC[C@@]3(C)[C@H]1C2` (some centres not stated), the values for the TGI with LXFL 529 NSCLC and in the test on SNB-78 CNS were 7.64 µM and 22.1 µM, respectively.
For `Nc1ccn(C2CC(CO)C(O)C2O)c(=O)n1` (configuration not stated), the TGI in the test on KM20L2 colon, in the test on LXFL 529 NSCLC and in the test with SNB-78 CNS was > 57.7 µM in each case.
For the molecule `N.N.NCCCCN.O=C([O-])C1(C(=O)[O-])CCC1.O=C([O-])C1(C(=O)[O-])CCC1.[Pt+4].[Pt+4]`, the GI50 in the test on KM20L2 colon, with LXFL 529 NSCLC and in the test on SNB-78 CNS was > 100 µM in each case. The TGI in the test with KM20L2 colon, in the test on LXFL 529 NSCLC and with SNB-78 CNS was > 100 µM each time.
In the case of `CO[C@@H]1[C@H](OC(=O)NC(=O)CCl)CC[C@]2(CO2)[C@H]1[C@@]1(C)O[C@@H]1CC=C(C)C`, the GI50 in the test on DU-145 prostate was 22.2 µM; with LXFL 529 NSCLC it was 6.1 µM; in the test on MDA-MB-231 breast it was 4.28 µM; with PC-3 prostate it was 25.3 µM. Also, the TGI with DU-145 prostate was 29.3 µM and 46.3 µM; with HS 578T breast, 63.7 µM and 157 µM; with KM20L2 colon, 41.5 µM; in the test with LXFL 529 NSCLC, 20.9 µM; in the test on MDA-MB-231 breast it was 38.1 µM and 12.7 µM; in the test on MDA-N, 27.3 µM. Also, in the test on PC-3 prostate, the TGI was 28.6 µM and 57.2 µM.
As to `CC1OC(OCC2COC(O)(Oc3c(-c4ccc(O)c(O)c4)oc4cc(O)cc(O)c4c3=O)C(O)C2O)C(O)C(O)C1O` (configuration not stated), the TGI with KM20L2 colon, in the test with LXFL 529 NSCLC and in the test on SNB-78 CNS was > 100 µM throughout.
Turning to `Cc1ccc(Cl)c(NC(=O)C(=O)C(C(=O)c2ccncc2)C2OC(=O)c3ccccc32)c1` (configuration not stated), the TGI with LXFL 529 NSCLC and in the test on SNB-78 CNS was > 100 µM each time.
As for `O=C(COc1ccccc1)NS(=O)(=O)c1ccccc1`, the TGI in the test on KM20L2 colon, in the test with LXFL 529 NSCLC and with SNB-78 CNS was > 100 µM in each case.
Take `COc1ccc2c(c1)OC[C@@H]1c3cc4c(cc3O[C@H]21)OCO4`: the TGI with KM20L2 colon, in the test on LXFL 529 NSCLC and in the test with SNB-78 CNS was > 100 µM in each case.
For the molecule `c1ccc(CN(Cn2cccn2)Cn2cccn2)nc1`, the TGI with KM20L2 colon, in the test with LXFL 529 NSCLC and in the test with SNB-78 CNS was > 100 µM throughout.
On to `Cc1cc(Cl)cc2c1NC(=O)C2(O)C(C)C(=O)c1ccc(Cl)cc1` (configuration not stated), for which the TGI with KM20L2 colon, in the test on LXFL 529 NSCLC and in the test with SNB-78 CNS was > 100 µM in each case.
For the molecule `COc1ccc2nc3ccccc3c(NCCCCCCN(C)CCCl)c2c1`, the values for the TGI in the test on KM20L2 colon, in the test on LXFL 529 NSCLC and with SNB-78 CNS were 2.54 µM, 1.76 µM and 4.79 µM, respectively.
Consider `Cc1ccccc1CN1CC=c2ccccc2=N1`, for which the TGI with KM20L2 colon and in the test on SNB-78 CNS was > 100 µM each time.
`CS(=O)(=O)Nc1ccc(Nc2c3ccccc3nc3ccccc23)cc1`: the TGI in the test on DU-145 prostate was > 23.1 µM; with HS 578T breast, 49.3 µM; with KM20L2 colon, 18.8 µM; with LXFL 529 NSCLC it was 18.7 µM; in the test on MDA-MB-231 breast it was 17.8 µM; in the test with MDA-N, 37 µM. The TGI in the test on PC-3 prostate was determined as 19.3 µM; in the test with SNB-78 CNS, 28.7 µM.
For the molecule `CCOC(=O)c1cn(Cc2ccccc2)c(=O)n1Cc1ccccc1`, the TGI in the test with KM20L2 colon, in the test with LXFL 529 NSCLC and in the test on SNB-78 CNS was > 100 µM each time.
As for `CCOC(=O)/C(=C/c1ccc(C#N)cc1)N(CC)CC`, the TGI with LXFL 529 NSCLC and in the test on SNB-78 CNS was > 100 µM throughout.
With `CC1=C(C(=O)Nc2ccc(Cl)c(Cl)c2)C(c2ccco2)C(C(=O)Nc2ccc(Cl)c(Cl)c2)=C(C)N1`, the TGI in the test on LXFL 529 NSCLC was 24.2 µM; in the test with SNB-78 CNS, 41.4 µM.
Consider `COC(=O)C1=C(CO)C2C=CC1C2` (configuration not stated), for which the TGI with KM20L2 colon, with LXFL 529 NSCLC and in the test on SNB-78 CNS was > 100 µM throughout.
Regarding `CN(C)CC1(C)CC/C(=C\c2ccccc2)C1=O` (configuration not stated), the TGI in the test on KM20L2 colon and with SNB-78 CNS was > 100 µM each time.
Regarding `CC(C)(C)c1ccc(C(O)c2ccc(C(C)(C)C)cc2)cc1`, the TGI came out at 32.5 µM in the test with KM20L2 colon and 29 µM in the test on LXFL 529 NSCLC.
Regarding `O=C(Nc1c(O)[nH]c(=S)[nH]c1=O)c1ccc2ccccc2n1`, the TGI in the test with KM20L2 colon, in the test on LXFL 529 NSCLC and in the test on SNB-78 CNS was > 100 µM throughout.
Turning to `O=C1CCC2(CC1)SCCCS2`, the TGI in the test with KM20L2 colon and in the test with LXFL 529 NSCLC was > 100 µM throughout.
For the molecule `CCCCCCCC/C=C\CCCCCCCC(=O)NCCN(CCN)C(=O)CCCCCCC/C=C\CCCCCCCC`, the TGI in the test with KM20L2 colon and in the test on LXFL 529 NSCLC was > 100 µM in each case.
`Cc1cc(Cl)ccc1N=C1NC(=O)C(CC(=O)Nc2ccc(Cl)cc2Cl)S1` (configuration not stated): the TGI in the test on KM20L2 colon, in the test on LXFL 529 NSCLC and in the test on SNB-78 CNS was > 100 µM in each case.
On to `NC1=N/C(=C2/CCNC(=O)c3[nH]c(Br)cc32)C(=O)N1`, for which the TGI with DU-145 prostate was > 100 µM; in the test with HS 578T breast, > 91.2 µM; in the test with KM20L2 colon it was > 100 µM; with MDA-MB-231 breast, 16.2 µM; in the test with MDA-N it was > 43.3 µM; with P388 leukemia, 86.1 µM. Further, the TGI in the test with P388/ADR leukemia, with PC-3 prostate, in the test on SN12K1 renal and in the test on SNB-78 CNS was > 100 µM in each case.
Turning to `COc1ccc(C(c2c(O)c3ccccc3n(C)c2=O)c2c(O)c3ccccc3n(C)c2=O)cc1`, the TGI is 45.7 µM in the test on KM20L2 colon, > 100 µM in the test with LXFL 529 NSCLC and 67.5 µM in the test with SNB-78 CNS.
For `O=C1OC(O)C(Oc2ccc(Cl)cc2)=C1Cl` (configuration not stated) the same measures were > 100 µM, > 100 µM and > 100 µM.
For `O=c1c2ccccc2c2nc3ccccc3nc2n1C1CCCCC1`, the TGI with KM20L2 colon, in the test on LXFL 529 NSCLC and with SNB-78 CNS was > 100 µM in each case.
As to `O=C1C(=O)C(Br)(Br)C(Br)=C1Br`, the TGI is 30.7 µM in the test on KM20L2 colon and 29 µM in the test with LXFL 529 NSCLC.
Take `N#CCCN(c1ccc(-c2nnc(NC(=O)CNNC(=O)CC(=O)Nc3ccccc3)s2)cc1)S(=O)(=O)c1ccccc1`: the TGI with LXFL 529 NSCLC is > 100 µM.
As for `O=[N+]([O-])c1nccn1COCCF`, the TGI with KM20L2 colon, in the test on LXFL 529 NSCLC and with SNB-78 CNS was > 100 µM throughout.
`COc1ccc(/C=C2\CCC(C)(CN(C)C)C2=O)cc1` (configuration not stated): the TGI in the test on KM20L2 colon, in the test with LXFL 529 NSCLC and in the test with SNB-78 CNS was > 100 µM each time.
On to `CC1=C(C(=O)NCc2ccccc2)C(c2ccccc2[N+](=O)[O-])C(C(=O)NCc2ccccc2)=C(C)N1`, for which the TGI with KM20L2 colon stood at 30.3 µM; with LXFL 529 NSCLC it was 23.1 µM; in the test on SNB-78 CNS it was 42.6 µM.
For the molecule `Cc1ccccc1C(C#N)C(=O)C(=O)Nc1cccc(Cl)c1` (configuration not stated), the TGI in the test on KM20L2 colon and in the test with SNB-78 CNS was > 100 µM in each case.
For the molecule `CC(C)=CC(=O)Cc1nc2cc(C)c(C)cc2[nH]c1=O`, the TGI in the test with KM20L2 colon, in the test with LXFL 529 NSCLC and with SNB-78 CNS was > 100 µM throughout.
